Tests used:
striatal neurons = conditions: cited from earlier work
[1] = test system: cerebellar granule neurons; conditions: cited from earlier work
[2] = test system: hippocampal slice cultures; conditions: cited from earlier work
iTat mice [3] = assay: Open Field Test (OPT), locomotor activity; format: in vivo, mouse
Description: (§1) Doxycycline (Dox)-inducible and astrocyte-specific HIV-1 Tat-transgenic mice (iTat) were generated as previously described.^38 Wild-type (Wt, C57BL/6) and α7 nAChR knockout mice (α7^−/−, B6.129S7-Chrna^7tm1Ba/J) were purchased from the Jackson Laboratory (Bar Harbor, ME). All the animal procedures were approved by the Institutional Animal Care and Use Committee. Mice were housed with a 12-hour light and 12-hour dark photoperiod and provided water and food ad libitum. α7^−/− iTat mice were generated by cross breeding iTat mice with α7^−/− mice. α7^−/− genotyping was slightly modified with the JumpStart™ Taq DNA Polymerase-based PCR (JumpStart™ Taq DNA Polymerase, Sigma, catalog #D9307). […] Mice of 10-14 weeks old with body weights of 20-35 grams were fed with Dox-containing diet (0.625 g/kg, Envigo, catalog #TD.01306) as stated.
(§2) Open Field Test (OPT) and Morris Water Maze (MWZ) were performed sequentially using a computerized video tracking system (Anymaze, Stoelting) to determine the spontaneous locomotor activity and spatial learning and memory, respectively. For OPT, each mouse was allowed to move freely around a clear acrylic chamber (40.5×40.5×30.5 cm) for 10 minutes. Travel distance and maximum speed was determined by the AnyMaze software. For MWZ, a circle pool (1.2 m diameter) surrounded with a curtain was divided into four equal quadrants, and four signs with different shape were fixed onto the middle of each quadrant wall above the opaque water (24±1° C.). A hidden platform (1.5 cm below water surface) was put into a certain quadrant. Two stages consisting of 5-day training and probe test were carried out. In the training stage, four trials with a 15-20 minute interval were conducted in the every-day training, and for each trial mice were allowed to freely seek the platform within 90 seconds right after they were randomly put into one quadrant facing to the pool wall. If the mice found the platform within 90 seconds, 10 seconds would be added to allow them staying on the platform for memorizing, however, if failed, they would be directed toward the platform and allowed to stay on it for 15 seconds. Mice that were immobile or floating and unable to find the platform during the training stages were excluded from the experiments. Probe test was carried out on the next day following the 5-day training stage with a 60 seconds trial, and the platform was removed to prevent the mice from climbing onto it during the testing. One day after the behavioral tests, mice were euthanized and the brains were harvested.
To determine if α7 nAChR is involved in HAND, iTat mice were fed with Dox-containing food pellets for 7 days, injected s.c. with a well-studied and highly specific positive allosteric modulator (PAM) PNU-120596 of α7 nAChR^73,74 […], and then subjected to open field test (OPT) for locomotor activity on day 14, and Morris Water Maze test (MWZ) for learning and spatial memory on day 15-20, and euthanized to harvest tissues on day 21 (FIG. 1A). Dox-containing food pellet feeding and PAM injection continued during the next 7 days of behavioral tests. To minimize the effects of injection on behavioral tests, PAM was injected 5 hours after each behavioral test.

iTat mice [4] = assay: Morris Water Maze (MWZ), training stage and probe test; format: in vivo, mouse
Description: as §1, §2
To determine if α7 nAChR is involved in HAND, iTat mice were fed with Dox-containing food pellets for 7 days, […], and then subjected to open field test (OPT) for locomotor activity on day 14, and Morris Water Maze test (MWZ) for learning and spatial memory on day 15-20, and euthanized to harvest tissues on day 21 (FIG. 1A). Dox-containing food pellet feeding and PAM injection continued during the next 7 days of behavioral tests. To minimize the effects of injection on behavioral tests, PAM was injected 5 hours after each behavioral test.

iTat mice [5] = assay: Western blotting of SYP, PSD-95, GFAP, Iba-1 in cortex and hippocampus; format: in vivo, mouse; conditions: CORT and HIP, SB239063-treated iTat vs Wt
Description: as §1
A RIPA buffer (50 mM Tris.HCl, pH 8.0, 280 mM NaCl, 0.5% NP-40, 1% C24H39NaO4, 0.2 mM EDTA, 2 mM EGTA and 10% glycerol) supplemented with protease inhibitors (Millipore-Sigma, catalog #S8830) and phosphatase inhibitors (Millipore-Sigma, catalog #4906845001) was used to lyse the brain tissues and cultured cells with brief sonication on ice. Protein concentrations of the lysates were determined using a Bio-Rad DC protein assay kit (Bio-Rad, catalog #5000111). Lysates were denatured in the SDS-PAGE loading buffer at 100° C. for 10 min, then electrophoretically separated by 8-15% SDS-PAGE, blotted onto 0.45 μm polyvinylidene fluoride membrane (GE Healthcare Life Sciences, catalog #10600023), and probed using appropriate antibodies against PSD-95 (Abcam, catalog #ab18258, and 1:2000 dilution), SYP (Abcam, catalog #ab8049, and 1:1000 dilution), Iba-1 (Wako, catalog #016-20001, and 1:500 dilution) and GFAP (DAKO, catalog #z330s, and 1:2000 dilution), p-p38 (Santa Cruz, catalog #sc-166182, and 1:1000 dilution), p38 (Santa cruz, catalog #sc-535, and 1:1000 dilution), p-JNK (Santa cruz, catalog #sc-6254, and 1:1000 dilution), JNK (Santa cruz, catalog #sc-571, and 1:1000 dilution), p-ERK (Santa cruz, catalog #sc-7383, and 1:1000 dilution), and ERK (Santa cruz, catalog #sc-514302, and 1:1000 dilution), α7 nAChR (Alomone, catalog #ANC-007, and 1:1000 dilution) and β-actin (Sigma-Aldrich, catalog #A1978, and 1:2000 dilution). A Bio-Rad ChemicDoc imaging system (Bio-Rad) and Image J were used for image capturing and analysis, respectively. […]

[6] = iTat vs Wt mice, SB239063 15 mg/kg/day i.p.

C[S+]([O-])c1ccc(-c2nc(-c3ccc(F)cc3)c(-c3ccncc3)[nH]2)cc1 (stereo not drawn) [SB203580]
Tat-induced neurite losses and cell death (striatal neurons): failed to block | Tat-induced apoptosis [1]: prevented

Oc1ccc(-c2nc(-c3ccc(F)cc3)c(-c3ccncc3)[nH]2)cc1 [SB202190]
Tat-induced inflammation and oxidation [2]: decreased

COc1nccc(-c2c(-c3ccc(F)cc3)ncn2C2CCC(O)CC2)n1 (stereo not drawn) [SB239063]
OPT travel distance and maximum speed, Wt vs iTat mice (iTat mice [3]; SB239063 15 mg/kg/day i.p., male and female): no significant differences in travel distance and maximum speed between Wt and iTat mice | OPT performance, female vs male mice (iTat mice [3]; Wt and iTat mice in response to SB239063): both female Wt and female iTat mice performed better in the OPT than male Wt and male iTat mice | OPT travel distance, SB239063-treated vs vehicle-treated (iTat mice [3]; female Wt and iTat mice, 15 mg/kg/day i.p.): difference of travel distance between SB239063-treated and vehicle-treated female mice | MWZ probe test platform entries, time at/distance to target quadrant, time at/distance to platform (iTat mice [4]; SB239063-treated female iTat mice vs vehicle-treated female Wt and iTat and SB239063-treated female Wt): fewer platform entries, shorter time at target quadrant, distance to target quadrant, time at platform, and distance to platform | Cognition, learning and memory effects (iTat mice [4]; Wt mice treated with SB239063): Some beneficial effects | MWZ probe test latency to platform (iTat mice [4]; female iTat mice, SB239063 vs vehicle): longer latency to platform than vehicle-treated female iTat mice | MWZ training stage cumulative distance (iTat mice [4]; [6]): difference between SB239063-treated male iTat and male Wt mice on day 2 and 3 and female iTat and Wt mice on day 4 | MWZ training stage escape latency (iTat mice [4]; [6]): even longer escape latency than Wt mice, with differences on day 3 and 4 for male mice | MWZ probe test platform entries, distance to target quadrant, distance to platform (iTat mice [4]; male iTat vs male Wt mice, SB239063 15 mg/kg/day i.p.): fewer platform entries, shorter distance to target quadrant and distance to platform than Wt male mice | SYP, GFAP and Iba-1 expression (iTat mice [5]; female mice): lower SYP, GFAP and Iba-1 with differences than SB239063-treated Wt mice | PSD-95 expression (iTat mice [5]; male and female): lower PSD-95 than SB239063-treated Wt mice | SYP and GFAP expression (iTat mice [5]; male mice): no differences of SYN and GFAP (except HIP) from SB239063-treated Wt mice

Source: patent US11786507B2, “Methods of treating HIV-associated neurological disorders (HAND)” (priority 2020, dated 2023)
